Assays:
CCR5 = target: T1, CCR5 (Homo sapiens, UniProt P51681); test: CCR5 binding assay ([125I]-MIP-1β displacement)
T1 construct: expressed in transfected cells; host or cells: CHO-K1
Protocol: CCR5 binding assay was performed under the following conditions, according to a method that was adapted from the literature [Samson et al., J. Biol. Chem., 272, 24934-41 (1997)].
Thus, Compound 8 was incubated for 2 hours at 25° C. in 50 mM HEPES, pH7.4 containing 1 mM CaCl2, 0.5% BSA, 5 mM MgCl2 and 1% DMSO with Human recombinant CHO-K1 cells in the presence of 0.1 nM [^125I]-MIP-1β, where MIP-1β is Macrophage Inflammatory Protein 1β.

CCR1 = target: T2, CCR1 (Homo sapiens, UniProt P32246); test: CCR1 binding assay ([125I]-MIP-1α displacement)
T2 construct: expressed in transfected cells; host or cells: CHO-K1
T2 sequence (P32246 1-355): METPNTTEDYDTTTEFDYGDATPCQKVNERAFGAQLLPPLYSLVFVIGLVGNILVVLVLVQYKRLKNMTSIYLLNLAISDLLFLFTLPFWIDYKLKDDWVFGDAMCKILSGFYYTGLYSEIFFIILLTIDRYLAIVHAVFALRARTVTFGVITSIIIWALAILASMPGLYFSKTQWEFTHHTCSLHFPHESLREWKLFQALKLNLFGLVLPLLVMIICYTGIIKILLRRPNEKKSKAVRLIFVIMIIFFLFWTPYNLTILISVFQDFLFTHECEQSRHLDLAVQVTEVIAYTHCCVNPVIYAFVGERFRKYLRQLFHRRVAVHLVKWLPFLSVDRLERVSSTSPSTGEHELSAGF
Protocol: The CCR1 binding assay was performed under the following conditions, according to a method that was adapted from the literature [Ben-Baruch et al., J. Biol. Chem., 270(38), 22123-8 (1995); Pease et al., J. Biol. Chem., 273(32), 19972-6 (1998)].
Thus, Compound 8 was incubated for 3 hours at 25° C. in 50 mM HEPES, pH7.4 containing 1 mM CaCl2, 0.5% BSA, 5 mM MgCl2 and 1% DMSO with Human recombinant CHO-K1 cells in the presence of 0.02 nM [^125I]-MIP-1α. MIP-1α is Macrophage Inflammatory Protein 1α (ligand of CCR1 and CCR5).

CCR2B = target: T3, CCR2B (Homo sapiens, UniProt P41597); test: CCR2B binding assay ([125I]-MCP-1 displacement)
T3 construct: expressed in transfected cells; host or cells: CHO-K1
T3 sequence (P41597 1-360 isoform P41597-2): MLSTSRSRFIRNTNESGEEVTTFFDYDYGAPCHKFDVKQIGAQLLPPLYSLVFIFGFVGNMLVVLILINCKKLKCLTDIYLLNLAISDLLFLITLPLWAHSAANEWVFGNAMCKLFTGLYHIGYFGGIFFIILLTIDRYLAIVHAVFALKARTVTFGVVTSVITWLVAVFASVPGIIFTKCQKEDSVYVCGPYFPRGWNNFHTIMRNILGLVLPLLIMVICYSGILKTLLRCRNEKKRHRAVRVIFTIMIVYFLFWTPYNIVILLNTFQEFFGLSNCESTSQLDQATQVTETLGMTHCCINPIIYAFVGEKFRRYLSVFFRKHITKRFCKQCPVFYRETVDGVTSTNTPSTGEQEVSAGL
Protocol: CCR2B binding assay was performed under the following conditions, according to a method that was adapted from the literature [Gong et al., J. Biol. Chem., 272, 11682-5 (1997); Moore et al., J. Leukoc. Biol., 62, 911-5 (1997)].
Thus, Compound 8 was incubated for 1 hour at 25° C. in 25 mM HEPES, pH7.4 containing 1 mM CaCl2, 0.5% BSA, 5 mM MgCl2, 0.1% NaN3 and 1% DMSO with Human recombinant CHO-K1 cells in the presence of 0.1 nM [^125I]-MCP-1. MCP-1 is monocyte chemoattractant protein (the ligand of CCR2).

[1] = Parallel Artificial Membrane Permeability Assay (PAMPA); format: in vitro ADME; settings: prediction of blood brain barrier penetration by passive diffusion, high Pe>4.0×10^-06, low Pe<2.0×10^-06 cm/sec
Protocol: The permeability of the CCR compounds was measured in a Parallel Artificial Membrane Permeability Assay (PAMPA) which gives a prediction of the blood brain barrier penetration by passive diffusion [Di et al, Eur. J. Med. Chem., 38(3), 223-232 (2003)].
The commonly accepted classification ranges for this PAMPA assay are as follows: • High predicted passive BBB permeation: Pe>4.0×10^−06 cm/sec. • Low predicted passive BBB permeation: Pe<2.0×10^−06 cm/sec.
Uncertain prediction of BBB permeation: 2.0×10^−06 cm/sec<Pe<4.0×10^−06 cm/sec.

T1 sequence (P51681 whole entry): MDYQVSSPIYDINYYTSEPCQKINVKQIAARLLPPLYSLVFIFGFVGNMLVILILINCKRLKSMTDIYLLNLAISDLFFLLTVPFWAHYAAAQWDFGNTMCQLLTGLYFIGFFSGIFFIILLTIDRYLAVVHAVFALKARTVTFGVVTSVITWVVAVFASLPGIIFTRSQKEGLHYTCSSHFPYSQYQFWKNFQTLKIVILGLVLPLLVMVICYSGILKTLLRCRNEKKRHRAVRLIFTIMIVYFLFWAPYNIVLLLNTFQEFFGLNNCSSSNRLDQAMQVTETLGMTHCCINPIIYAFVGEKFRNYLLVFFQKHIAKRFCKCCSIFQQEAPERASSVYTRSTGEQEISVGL

## Cc1ccc(N(CCCN2CCC(Cc3ccc(F)cc3)CC2)C(=O)C2CCN(C(=O)CF)CC2)cc1Cl [Compound 8]
CCR5
  Ki: 0.79 nM
CCR5; compared with CCR1 and CCR2B binding at 10 μM
  selectivity for CCR5 over CCR1 and CCR2B (in words): selective for CCR5
CCR5; summary statement of Example 6
  CCR5 binding (in words): high affinity
CCR1; 10 μM Compound 8, Human recombinant CHO-K1 cells, 0.02 nM [125I]-MIP-1α, 3 hours at 25° C.
  inhibition at 10 µM: 32%
CCR1; summary statement of Example 6
  CCR1 binding (in words): does not bind
CCR2B; 10 μM concentration, Human recombinant CHO-K1 cells, 0.1 nM [125I]-MCP-1, 1 hour at 25° C.
  inhibition of the binding of MCP-1 to CCR2B: did not inhibit
CCR2B; summary statement of Example 6
  CCR2B binding (in words): does not bind
[1]
  Papp: 6.8 ×10⁻⁶ cm/s

Reference: patent US20130129626A1, “IN VIVO IMAGING AGENTS” (H[…] LIMITED, priority 2006, published 2013)
